{"source": "ChEMBL document CHEMBL3885881", "about": "“DrugMatrix”", "species_on_record": "Rattus norvegicus", "assay": "DrugMatrix - Regimen: Daily Repeat", "format": "toxicity, organism-based, Sprague-Dawley", "set-up": "regimen Daily Repeat, gender Male, age 6-8 weeks", "conditions": "in vivo, po, 100 mg/kg, route oral GAVAGE, dose level Low, vehicle .5 % CMC; for ABSOLUTE BASOPHIL / ABSOLUTE EOSINOPHIL / ABSOLUTE LYMPHOCYTE / ABSOLUTE MONOCYTE / ABSOLUTE SEGMENTED NEUTROPHIL / BASOPHIL / EOSINOPHIL / ERYTHROCYTE COUNT / HEMATOCRIT / HEMOGLOBIN / LEUKOCYTE COUNT / LYMPHOCYTE / MEAN CORPUSCULAR HEMOGLOBIN / MEAN CORPUSCULAR HEMOGLOBIN CONCENTRATION / MEAN CORPUSCULAR VOLUME / MONOCYTE / NEUTROPHIL / NUCLEATED RED BLOOD CELLS / PLATELET COUNT: tissue Blood; for ALANINE AMINOTRANSFERASE / ALBUMIN / ALKALINE PHOSPHATASE / ASPARTATE AMINOTRANSFERASE / BLOOD UREA NITROGEN / CARBON DIOXIDE / CHLORIDE / CHOLESTEROL / CREATINE PHOSPHOKINASE / CREATININE / GLUCOSE / LACTATE DEHYDROGENASE / LIPASE / PHOSPHORUS / POTASSIUM / SODIUM / TOTAL BILIRUBIN / TOTAL PROTEIN / URIC ACID: tissue Plasma", "data": [{"smiles": "CC=Cc1ccc(O)c(OC)c1", "note": "[ISOEUGENOL]", "values": [{"measurement": "ABSOLUTE BASOPHIL", "setting": "72 h, time 3 day", "result": 0, "unit": "CELLS/uL"}, {"measurement": "ABSOLUTE EOSINOPHIL", "setting": "72 h, time 3 day", "result": 0, "unit": "CELLS/uL"}, {"measurement": "ABSOLUTE LYMPHOCYTE", "setting": "72 h, time 3 day", "result": 15444.33, "unit": "CELLS/uL"}, {"measurement": "ABSOLUTE MONOCYTE", "setting": "72 h, time 3 day", "result": 342, "unit": "CELLS/uL"}, {"measurement": "ABSOLUTE SEGMENTED NEUTROPHIL", "setting": "72 h, time 3 day", "result": 1847, "unit": "CELLS/uL"}, {"measurement": "BASOPHIL", "setting": "72 h, time 3 day", "result": 0, "unit": "%"}, {"measurement": "EOSINOPHIL", "setting": "72 h, time 3 day", "result": 0, "unit": "%"}, {"measurement": "ERYTHROCYTE COUNT", "setting": "72 h, time 3 day", "result": 5.62, "unit": "x10E6/uL"}, {"measurement": "HEMATOCRIT", "setting": "72 h, time 3 day", "result": 36.7, "unit": "%"}, {"measurement": "HEMOGLOBIN", "setting": "72 h, time 3 day", "result": 13.83, "unit": "G/DL"}, {"measurement": "LEUKOCYTE COUNT", "setting": "72 h, time 3 day", "result": 17.63, "unit": "x10E3/uL"}, {"measurement": "LYMPHOCYTE", "setting": "72 h, time 3 day", "result": 87.33, "unit": "%"}, {"measurement": "MEAN CORPUSCULAR HEMOGLOBIN", "setting": "72 h, time 3 day", "result": 24.63, "unit": "pg"}, {"measurement": "MEAN CORPUSCULAR HEMOGLOBIN CONCENTRATION", "setting": "72 h, time 3 day", "result": 37.77, "unit": "G/DL"}, {"measurement": "MEAN CORPUSCULAR VOLUME", "setting": "72 h, time 3 day", "result": 65.23, "unit": "fL"}, {"measurement": "MONOCYTE", "setting": "72 h, time 3 day", "result": 2, "unit": "%"}, {"measurement": "NEUTROPHIL", "setting": "72 h, time 3 day", "result": 10.67, "unit": "%"}, {"measurement": "NUCLEATED RED BLOOD CELLS", "setting": "72 h, time 3 day", "result": "0 /100WBC"}, {"measurement": "PLATELET COUNT", "setting": "72 h, time 3 day", "result": 1262, "unit": "x10E3/uL"}, {"measurement": "ALANINE AMINOTRANSFERASE", "setting": "72 h, time 3 day", "result": 53.33, "unit": "u/L"}, {"measurement": "ALBUMIN", "setting": "72 h, time 3 day", "result": 4.73, "unit": "G/DL"}, {"measurement": "ALKALINE PHOSPHATASE", "setting": "72 h, time 3 day", "result": 338.67, "unit": "u/L"}, {"measurement": "ASPARTATE AMINOTRANSFERASE", "setting": "72 h, time 3 day", "result": 88.33, "unit": "u/L"}, {"measurement": "BLOOD UREA NITROGEN", "setting": "72 h, time 3 day", "result": 17.67, "unit": "mg/dL"}, {"measurement": "CARBON DIOXIDE", "setting": "72 h, time 3 day", "result": 23.67, "unit": "mmol/L"}, {"measurement": "CHLORIDE", "setting": "72 h, time 3 day", "result": 102, "unit": "MEQ/L"}, {"measurement": "CHOLESTEROL", "setting": "72 h, time 3 day", "result": 66.67, "unit": "mg/dL"}, {"measurement": "CREATINE PHOSPHOKINASE", "setting": "72 h, time 3 day", "result": 312.33, "unit": "u/L"}, {"measurement": "CREATININE", "setting": "72 h, time 3 day", "result": 0.17, "unit": "mg/dL"}, {"measurement": "GLUCOSE", "setting": "72 h, time 3 day", "result": 143, "unit": "mg/dL"}, {"measurement": "LACTATE DEHYDROGENASE", "setting": "72 h, time 3 day", "result": 280.33, "unit": "u/L"}, {"measurement": "LIPASE", "setting": "72 h, time 3 day", "result": 9.33, "unit": "u/L"}, {"measurement": "PHOSPHORUS", "setting": "72 h, time 3 day", "result": 11.33, "unit": "mg/dL"}, {"measurement": "POTASSIUM", "setting": "72 h, time 3 day", "result": 6.23, "unit": "MEQ/L"}, {"measurement": "SODIUM", "setting": "72 h, time 3 day", "result": 144.93, "unit": "MEQ/L"}, {"measurement": "TOTAL BILIRUBIN", "setting": "72 h, time 3 day", "result": 0.23, "unit": "mg/dL"}, {"measurement": "TOTAL PROTEIN", "setting": "72 h, time 3 day", "result": 5.83, "unit": "G/DL"}, {"measurement": "URIC ACID", "setting": "72 h, time 3 day", "result": 1.8, "unit": "mg/dL"}, {"measurement": "ABSOLUTE BASOPHIL", "setting": "120 h, time 5 day", "result": 0, "unit": "CELLS/uL"}, {"measurement": "ABSOLUTE EOSINOPHIL", "setting": "120 h, time 5 day", "result": 450, "unit": "CELLS/uL"}, {"measurement": "ABSOLUTE LYMPHOCYTE", "setting": "120 h, time 5 day", "result": 12545.67, "unit": "CELLS/uL"}, {"measurement": "ABSOLUTE MONOCYTE", "setting": "120 h, time 5 day", "result": 392.67, "unit": "CELLS/uL"}, {"measurement": "ABSOLUTE SEGMENTED NEUTROPHIL", "setting": "120 h, time 5 day", "result": 1645, "unit": "CELLS/uL"}, {"measurement": "BASOPHIL", "setting": "120 h, time 5 day", "result": 0, "unit": "%"}, {"measurement": "EOSINOPHIL", "setting": "120 h, time 5 day", "result": 3, "unit": "%"}, {"measurement": "ERYTHROCYTE COUNT", "setting": "120 h, time 5 day", "result": 5.9, "unit": "x10E6/uL"}, {"measurement": "HEMATOCRIT", "setting": "120 h, time 5 day", "result": 36, "unit": "%"}, {"measurement": "HEMOGLOBIN", "setting": "120 h, time 5 day", "result": 13.27, "unit": "G/DL"}, {"measurement": "LEUKOCYTE COUNT", "setting": "120 h, time 5 day", "result": 15.03, "unit": "x10E3/uL"}, {"measurement": "LYMPHOCYTE", "setting": "120 h, time 5 day", "result": 83.33, "unit": "%"}, {"measurement": "MEAN CORPUSCULAR HEMOGLOBIN", "setting": "120 h, time 5 day", "result": 22.57, "unit": "pg"}, {"measurement": "MEAN CORPUSCULAR HEMOGLOBIN CONCENTRATION", "setting": "120 h, time 5 day", "result": 36.83, "unit": "G/DL"}, {"measurement": "MEAN CORPUSCULAR VOLUME", "setting": "120 h, time 5 day", "result": 61.17, "unit": "fL"}, {"measurement": "MONOCYTE", "setting": "120 h, time 5 day", "result": 2.67, "unit": "%"}, {"measurement": "NEUTROPHIL", "setting": "120 h, time 5 day", "result": 11, "unit": "%"}, {"measurement": "NUCLEATED RED BLOOD CELLS", "setting": "120 h, time 5 day", "result": "0 /100WBC"}, {"measurement": "PLATELET COUNT", "setting": "120 h, time 5 day", "result": 1402, "unit": "x10E3/uL"}, {"measurement": "ALANINE AMINOTRANSFERASE", "setting": "120 h, time 5 day", "result": 47.67, "unit": "u/L"}, {"measurement": "ALBUMIN", "setting": "120 h, time 5 day", "result": 4.37, "unit": "G/DL"}, {"measurement": "ALKALINE PHOSPHATASE", "setting": "120 h, time 5 day", "result": 345.67, "unit": "u/L"}, {"measurement": "ASPARTATE AMINOTRANSFERASE", "setting": "120 h, time 5 day", "result": 83.33, "unit": "u/L"}, {"measurement": "BLOOD UREA NITROGEN", "setting": "120 h, time 5 day", "result": 18, "unit": "mg/dL"}, {"measurement": "CARBON DIOXIDE", "setting": "120 h, time 5 day", "result": 23.67, "unit": "mmol/L"}, {"measurement": "CHLORIDE", "setting": "120 h, time 5 day", "result": 109.67, "unit": "MEQ/L"}, {"measurement": "CHOLESTEROL", "setting": "120 h, time 5 day", "result": 58, "unit": "mg/dL"}, {"measurement": "CREATINE PHOSPHOKINASE", "setting": "120 h, time 5 day", "result": 251.33, "unit": "u/L"}, {"measurement": "CREATININE", "setting": "120 h, time 5 day", "result": 0.21, "unit": "mg/dL"}, {"measurement": "GLUCOSE", "setting": "120 h, time 5 day", "result": 141, "unit": "mg/dL"}, {"measurement": "LACTATE DEHYDROGENASE", "setting": "120 h, time 5 day", "result": 180.67, "unit": "u/L"}, {"measurement": "LIPASE", "setting": "120 h, time 5 day", "result": 9, "unit": "u/L"}, {"measurement": "PHOSPHORUS", "setting": "120 h, time 5 day", "result": 11.17, "unit": "mg/dL"}, {"measurement": "POTASSIUM", "setting": "120 h, time 5 day", "result": 6.1, "unit": "MEQ/L"}, {"measurement": "SODIUM", "setting": "120 h, time 5 day", "result": 146.53, "unit": "MEQ/L"}, {"measurement": "TOTAL BILIRUBIN", "setting": "120 h, time 5 day", "result": 0.2, "unit": "mg/dL"}, {"measurement": "TOTAL PROTEIN", "setting": "120 h, time 5 day", "result": 6.13, "unit": "G/DL"}, {"measurement": "URIC ACID", "setting": "120 h, time 5 day", "result": 1.57, "unit": "mg/dL"}]}]}
